# Patent US20250235543A1, “MODIFIED PROTEINS AND PROTEIN DEGRADERS” (Cullgen (Shanghai), Inc., priority 2021, published 2025)
# Test system: P300/CBP
# Assay: P300/CBP cellular protein degradation
# Type: cell-based
# Protocol: Cultured cells were washed with cold PBS once and lysed in cold RIPA buffer supplemented with protease inhibitors and phosphatase inhibitors (Beyotime Biotechnology). The solutions were then incubated at 4° C. for 30 min with gentle agitation to fully lysed cells. Cell lysates were centrifuged at 13,000 rpm for 10 min at 4° C. and pellets were discarded. Total protein concentrations in the lysates were determined following BCA assays (Beyotime Biotechnology). Cell lysates were mixed with Laemmli loading buffer and heated at 99° C. for 5 min. Proteins were resolved on SDS-PAGE and visualized using Western ECL Substrate kits on a ChemiDoc MP Imaging system (Bio-Rad). Protein bands were quantitated using the Image Lab software provided by Bio-Rad.
row,Compound,P300/CBP Degradation (100 nM)
1,"CC(=O)N1CCc2c(c(N3CCCc4cc(-c5cnn(C)c5)c(C(F)F)cc43)nn2C2CCN(CC(=O)NCCCCCC(=O)Nc3ccccc3C(=O)Nc3nc(C)c([N+](=O)[O-])s3)CC2)C1 [CPD-213, 2-(6-(2-(4-(5-Acetyl-3-(7-(difluoromethyl)-6-(1-methyl-1H-pyrazol-4-yl)-3,4-dihydroquinolin-1(2H)-yl)-4,5,6,7-tetrahydro-1H-pyrazolo[4,3-c]pyridin-1-yl)piperidin-1-yl)acetamido)hexanamido)-N-(4-methyl-5-nitrothiazol-2-yl)benzamide]",D (degradation activity < 30%)
2,"CC(=O)N1CCc2c(c(N3CCCc4cc(-c5cnn(C)c5)c(C(F)F)cc43)nn2C2CCN(CC(=O)NCCCCC(=O)Nc3ccccc3C(=O)Nc3nc(C)c([N+](=O)[O-])s3)CC2)C1 [CPD-212, 2-(5-(2-(4-(5-Acetyl-3-(7-(difluoromethyl)-6-(1-methyl-1H-pyrazol-4-yl)-3,4-dihydroquinolin-1(2H)-yl)-4,5,6,7-tetrahydro-1H-pyrazolo[4,3-c]pyridin-1-yl)piperidin-1-yl)acetamido)pentanamido)-N-(4-methyl-5-nitrothiazol-2-yl)benzamide]",D (degradation activity < 30%)
3,"CC(=O)N1CCc2c(c(N3CCCc4cc(-c5cnn(C)c5)c(C(F)F)cc43)nn2C2CCN(C(=O)CCCC(=O)Nc3ccccc3C(=O)Nc3nc(C)c([N+](=O)[O-])s3)CC2)C1 [CPD-200, 2-(5-(4-(5-Acetyl-3-(7-(difluoromethyl)-6-(1-methyl-1H-pyrazol-4-yl)-3,4-dihydroquinolin-1(2H)-yl)-4,5,6,7-tetrahydro-1H-pyrazolo[4,3-c]pyridin-1-yl)piperidin-1-yl)-5-oxopentanamido)-N-(4-methyl-5-nitrothiazol-2-yl)benzamide]",D (degradation activity < 30%)
4,"CC(=O)N1CCc2c(c(N3CCCc4cc(-c5cnn(C)c5)c(C(F)F)cc43)nn2C2CCN(CC(=O)NCCCCCCCCNc3ccc(C(=O)Nc4ncc(C)s4)c(C)c3)CC2)C1 [CPD-195, 4-((8-(2-(4-(5-Acetyl-3-(7-(difluoromethyl)-6-(1-methyl-1H-pyrazol-4-yl)-3,4-dihydroquinolin-1(2H)-yl)-4,5,6,7-tetrahydro-1H-pyrazolo[4,3-c]pyridin-1-yl)piperidin-1-yl)acetamido)octyl)amino)-2-methyl-N-(5-methylthiazol-2-yl)benzamide]",D (degradation activity < 30%)
5,"CC(=O)N1CCc2c(c(N3CCCc4cc(-c5cnn(C)c5)c(C(F)F)cc43)nn2C2CCN(CC(=O)NCCCCCCCCCCC(=O)Nc3ccccc3C(=O)Nc3nc(C)c([N+](=O)[O-])s3)CC2)C1 [CPD-218, 2-(11-(2-(4-(5-Acetyl-3-(7-(difluoromethyl)-6-(1-methyl-1H-pyrazol-4-yl)-3,4-dihydroquinolin-1(2H)-yl)-4,5,6,7-tetrahydro-1H-pyrazolo[4,3-c]pyridin-1-yl)piperidin-1-yl)acetamido)undecanamido)-N-(4-methyl-5-nitrothiazol-2-yl)benzamide]",D (degradation activity < 30%)
6,"CC(=O)N1CCc2c(c(N3CCCc4cc(-c5cnn(C)c5)c(C(F)F)cc43)nn2C2CCN(CC(=O)NCCOCCOCCNc3ccc(C(=O)Nc4ncc(C)s4)c(C)c3)CC2)C1 [CPD-198, 4-((2-(2-(2-(2-(4-(5-Acetyl-3-(7-(difluoromethyl)-6-(1-methyl-1H-pyrazol-4-yl)-3,4-dihydroquinolin-1(2H)-yl)-4,5,6,7-tetrahydro-1H-pyrazolo[4,3-c]pyridin-1-yl)piperidin-1-yl)acetamido)ethoxy)ethoxy)ethyl)amino)-2-methyl-N-(5-methylthiazol-2-yl)benzamide]",D (degradation activity < 30%)
7,"CC(=O)N1CCc2c(c(N3CCCc4cc(-c5cnn(C)c5)c(C(F)F)cc43)nn2C2CCN(CC(=O)NCCCCCCCC(=O)Nc3ccccc3C(=O)Nc3nc(C)c([N+](=O)[O-])s3)CC2)C1 [CPD-215, 2-(8-(2-(4-(5-Acetyl-3-(7-(difluoromethyl)-6-(1-methyl-1H-pyrazol-4-yl)-3,4-dihydroquinolin-1(2H)-yl)-4,5,6,7-tetrahydro-1H-pyrazolo[4,3-c]pyridin-1-yl)piperidin-1-yl)acetamido)octanamido)-N-(4-methyl-5-nitrothiazol-2-yl)benzamide]",D (degradation activity < 30%)
8,"CC(=O)N1CCc2c(c(N3CCCc4cc(-c5cnn(C)c5)c(C(F)F)cc43)nn2C2CCN(CC(=O)NCCNc3ccc(C(=O)Nc4ncc(C)s4)c(C)c3)CC2)C1 [CPD-189, 4-((2-(2-(4-(5-Acetyl-3-(7-(difluoromethyl)-6-(1-methyl-1H-pyrazol-4-yl)-3,4-dihydroquinolin-1(2H)-yl)-4,5,6,7-tetrahydro-1H-pyrazolo[4,3-c]pyridin-1-yl)piperidin-1-yl)acetamido)ethyl)amino)-2-methyl-N-(5-methylthiazol-2-yl)benzamide]",D (degradation activity < 30%)
9,"CC(=O)N1CCc2c(c(N3CCCc4cc(-c5cnn(C)c5)c(C(F)F)cc43)nn2C2CCN(CC(=O)NCCCCCCCCCNc3ccc(C(=O)Nc4ncc(C)s4)c(C)c3)CC2)C1 [CPD-196, 4-((9-(2-(4-(5-Acetyl-3-(7-(difluoromethyl)-6-(1-methyl-1H-pyrazol-4-yl)-3,4-dihydroquinolin-1(2H)-yl)-4,5,6,7-tetrahydro-1H-pyrazolo[4,3-c]pyridin-1-yl)piperidin-1-yl)acetamido)nonyl)amino)-2-methyl-N-(5-methylthiazol-2-yl)benzamide]",D (degradation activity < 30%)
10,"CC(=O)N1CCc2c(c(N3CCCc4cc(-c5cnn(C)c5)c(C(F)F)cc43)nn2C2CCN(CC(=O)NCCCCCCCCC(=O)Nc3ccccc3C(=O)Nc3nc(C)c([N+](=O)[O-])s3)CC2)C1 [CPD-216, 2-(9-(2-(4-(5-Acetyl-3-(7-(difluoromethyl)-6-(1-methyl-1H-pyrazol-4-yl)-3,4-dihydroquinolin-1(2H)-yl)-4,5,6,7-tetrahydro-1H-pyrazolo[4,3-c]pyridin-1-yl)piperidin-1-yl)acetamido)nonanamido)-N-(4-methyl-5-nitrothiazol-2-yl)benzamide]",D (degradation activity < 30%)
11,"CC(=O)N1CCc2c(c(N3CCCc4cc(-c5cnn(C)c5)c(C(F)F)cc43)nn2C2CCN(C(=O)CCCCCCCCCCCC(=O)Nc3ccccc3C(=O)Nc3nc(C)c([N+](=O)[O-])s3)CC2)C1 [CPD-208, 2-(13-(4-(5-Acetyl-3-(7-(difluoromethyl)-6-(1-methyl-1H-pyrazol-4-yl)-3,4-dihydroquinolin-1(2H)-yl)-4,5,6,7-tetrahydro-1H-pyrazolo[4,3-c]pyridin-1-yl)piperidin-1-yl)-13-oxotridecanamido)-N-(4-methyl-5-nitrothiazol-2-yl)benzamide]",D (degradation activity < 30%)
12,"CC(=O)N1CCc2c(c(N3CCCc4cc(-c5cnn(C)c5)c(C(F)F)cc43)nn2C2CCN(C(=O)CCCCCCCCCC(=O)Nc3ccccc3C(=O)Nc3nc(C)c([N+](=O)[O-])s3)CC2)C1 [CPD-206, 2-(11-(4-(5-Acetyl-3-(7-(difluoromethyl)-6-(1-methyl-1H-pyrazol-4-yl)-3,4-dihydroquinolin-1(2H)-yl)-4,5,6,7-tetrahydro-1H-pyrazolo[4,3-c]pyridin-1-yl)piperidin-1-yl)-11-oxoundecanamido)-N-(4-methyl-5-nitrothiazol-2-yl)benzamide]",D (degradation activity < 30%)
13,"CC(=O)N1CCc2c(c(N3CCCc4cc(-c5cnn(C)c5)c(C(F)F)cc43)nn2C2CCN(C(=O)CCCCCCCCCCC(=O)Nc3ccccc3C(=O)Nc3nc(C)c([N+](=O)[O-])s3)CC2)C1 [CPD-207, 2-(12-(4-(5-Acetyl-3-(7-(difluoromethyl)-6-(1-methyl-1H-pyrazol-4-yl)-3,4-dihydroquinolin-1(2H)-yl)-4,5,6,7-tetrahydro-1H-pyrazolo[4,3-c]pyridin-1-yl)piperidin-1-yl)-12-oxododecanamido)-N-(4-methyl-5-nitrothiazol-2-yl)benzamide]",D (degradation activity < 30%)
14,"CC(=O)N1CCc2c(c(N3CCCc4cc(-c5cnn(C)c5)c(C(F)F)cc43)nn2C2CCN(C(=O)CCCCCC(=O)Nc3ccccc3C(=O)Nc3nc(C)c([N+](=O)[O-])s3)CC2)C1 [CPD-202, 2-(7-(4-(5-Acetyl-3-(7-(difluoromethyl)-6-(1-methyl-1H-pyrazol-4-yl)-3,4-dihydroquinolin-1(2H)-yl)-4,5,6,7-tetrahydro-1H-pyrazolo[4,3-c]pyridin-1-yl)piperidin-1-yl)-7-oxoheptanamido)-N-(4-methyl-5-nitrothiazol-2-yl)benzamide]",D (degradation activity < 30%)
15,"CC(=O)N1CCc2c(c(N3CCCc4cc(-c5cnn(C)c5)c(C(F)F)cc43)nn2C2CCN(C(=O)CCCCCCCCC(=O)Nc3ccccc3C(=O)Nc3nc(C)c([N+](=O)[O-])s3)CC2)C1 [CPD-205, 2-(10-(4-(5-Acetyl-3-(7-(difluoromethyl)-6-(1-methyl-1H-pyrazol-4-yl)-3,4-dihydroquinolin-1(2H)-yl)-4,5,6,7-tetrahydro-1H-pyrazolo[4,3-c]pyridin-1-yl)piperidin-1-yl)-10-oxodecanamido)-N-(4-methyl-5-nitrothiazol-2-yl)benzamide]",D (degradation activity < 30%)
16,"CC(=O)N1CCc2c(c(N3CCCc4cc(-c5cnn(C)c5)c(C(F)F)cc43)nn2C2CCN(CC(=O)NCCCCCCNc3ccc(C(=O)Nc4ncc(C)s4)c(C)c3)CC2)C1 [CPD-193, 4-((6-(2-(4-(A-Acetyl-3-(7-(difluoromethyl)-6-(1-methyl-1H-pyrazol-4-yl)-3,4-dihydroquinolin-1(2H)-yl)-4,5,6,7-tetrahydro-1H-pyrazolo[4,3-c]pyridin-1-yl)piperidin-1-yl)acetamido)hexyl)amino)-2-methyl-N-(5-methylthiazol-2-yl)benzamide]",D (degradation activity < 30%)
